Experiments:
[1] = tested on: phosphorylation of p70S6K; assay: Inhibition of p70S6K phosphorylation, α-screen assay in SH-SY5Y cell; assay type: cell-based; conditions: mean ± SD (n ≥ 3)
[2] = in vitro; conditions: PAMPA
[3] = from PAMPA–BBB Pe

Compound | Inhibition ratio of p70S6K phosphorylation at 20 μmol/L (%) [1] [%] | Papp at 10 h, 100 μg/mL [2] [×10⁻⁶ cm/s] | Prediction of BBB penetration [3]
CC(=O)Oc1ccccc1C(=O)Nc1nccs1 [Compound 4, 2-Acetyloxy-N-(thiazol-2-yl)benzamide] | 9.98±5.16 | – | –
O=C(Nc1ncc(N2CCOCC2)s1)C1CCC1 [Compound 40, N-(5-Morpholinothiazol-2-yl)cyclobutanecarboxamide] | 66.21±3.74 | – | –
CC(=O)Oc1ccccc1C(=O)Nc1ncc(C(=O)OCc2ccccc2)s1 [Compound 7, Benzyl 2-(2-acetoxybenzamido)thiazole-5-carboxylate] | 18.88±5.27 | – | –
O=C1CCCCC1C(=O)Nc1ncc(N2CCOCC2)s1 (stereo not drawn) [Compound 53, N-(5-Morpholinothiazol-2-yl)-2-oxocyclohexanecarboxamide] | 44.94±4.00 | – | –
CC(=O)Oc1ccccc1C(=O)Nc1ncc(C(=O)O)s1 [Compound 10, 2-(2-Acetoxybenzamido)thiazole-5-carboxylic acid] | −4.51±19.40 | – | –
Cc1ccc(C(=O)Nc2ncc(N3CCOCC3)s2)s1 [Compound 37, 5-Methyl-N-(5-morpholinothiazol-2-yl)thiophene-2-carboxamide] | 81.20±1.60 | 9.89 ± 0.37 | CNS+ (Compounds with permeabilities Pe > 3.08 × 10^−6 cm/s could cross the BBB by passive diffusion (CNS+))
O=C(Nc1ncc(N2CCOCC2)s1)c1ccc(Br)cc1O [Compound 17, 4-Bromo-2-hydroxy-N-(5-morpholinothiazol-2-yl)benzamide] | 15.41±5.32 | – | –
O=C(Nc1ncc(N2CCOCC2)s1)c1ccc(C(F)(F)F)cc1O [Compound 18, 2-Hydroxy-N-(5-morpholinothiazol-2-yl)-4-(trifluoromethyl)benzamide] | 8.76±5.93 | – | –
COc1ccccc1C(=O)Nc1ncc(N2CCOCC2)s1 [Compound 29, 2-Methoxy-N-(5-morpholinothiazol-2-yl)benzamide] | 26.90±6.23 | – | –
CCC(=O)Nc1ncc(N2CCOCC2)s1 [Compound 46, N-(5-Morpholinothiazol-2-yl)propionamide] | 44.98±8.58 | – | –
CSc1cnc(NC(=O)c2ccccc2OC(C)=O)s1 [Compound 8, 2-Acetyloxy-N-(5-(methylthio)thiazol-2-yl)benzamide] | 44.74±9.98 | – | –
CCCCCC(=O)Nc1ncc(N2CCOCC2)s1 [Compound 48, N-(5-Morpholinothiazol-2-yl)hexanamide] | 61.32±5.39 | – | –
CC(C)CC(=O)Nc1ncc(N2CCOCC2)s1 [Compound 49, 3-Methyl-N-(5-morpholinothiazol-2-yl)butanamide] | 40.38±3.37 | – | –
O=C(Nc1ncc(N2CCOCC2)s1)c1ccco1 [Compound 32, N-(5-Morpholinothiazol-2-yl)furan-2-carboxamide] | 81.09±4.27 | 6.16 ± 0.5 | CNS+ (Compounds with permeabilities Pe > 3.08 × 10^−6 cm/s could cross the BBB by passive diffusion (CNS+))
CC(=O)Oc1ccc(C(=O)Nc2ncc(N3CCOCC3)s2)cc1 [Compound 23, 4-Acetyloxy-N-(5-morpholinothiazol-2-yl)benzamide] | 84.96±0.98 | 4.92 ± 0.31 | CNS+ (Compounds with permeabilities Pe > 3.08 × 10^−6 cm/s could cross the BBB by passive diffusion (CNS+))
Cc1ccsc1C(=O)Nc1ncc(N2CCOCC2)s1 [Compound 38, 3-Methyl-N-(5-morpholinothiazol-2-yl)thiophene-2-carboxamide] | 80.32±0.71 | 9.88 ± 0.75 | CNS+ (Compounds with permeabilities Pe > 3.08 × 10^−6 cm/s could cross the BBB by passive diffusion (CNS+))
O=C(Nc1ncc(N2CCOCC2)s1)C1CCCCC1 [Compound 42, N-(5-Morpholinothiazol-2-yl)cyclohexanecarboxamide] | 61.15±1.44 | – | –
CC(=O)Oc1ccccc1C(=O)Nc1ncc(C#N)s1 [Compound 5, 2-Acetyloxy-N-(5-cyanothiazol-2-yl)benzamide] | 70.85±3.56 | – | –
COC(=O)c1cnc(NC(=O)c2ccccc2OC(C)=O)s1 [Compound 6, Methyl 2-(2-acetoxybenzamido)thiazole-5-carboxylate] | 32.72±7.87 | – | –
O=C(Nc1ncc(N2CCOCC2)s1)c1ccc(F)cc1O [Compound 15, 4-Fluoro-2-hydroxy-N-(5-morpholinothiazol-2-yl)benzamide] | 42.25±0.19 | – | –
O=C(Nc1ncc(N2CCOCC2)s1)c1ccccc1O [Compound 19, 2-Hydroxy-N-(5-morpholinothiazol-2-yl)benzamide] | 53.79±3.85 | – | –
COC[C@H]1OC(=O)c2coc3c2[C@@]1(C)C1=C(C3=O)[C@@H]2CCC(=O)[C@@]2(C)C[C@H]1OC(C)=O [WORT, wortmannin, reference compound] | 90.68±1.46 | – | –

Compound | Inhibition ratio of p70S6K phosphorylation at 20 μmol/L (%) [1] [%] | Papp at 10 h, 100 μg/mL [2] [×10⁻⁶ cm/s] | Prediction of BBB penetration [3]
O=C(Nc1ncc(N2CCOCC2)s1)C1CCCCCC1 [Compound 43, N-(5-Morpholinothiazol-2-yl)cycloheptanecarboxamide] | 51.10±1.59 | – | –
O=C(Nc1ncc(N2CCOCC2)s1)c1ccc(Cl)cc1O [Compound 16, 4-Chloro-2-hydroxy-N-(5-morpholinothiazol-2-yl)benzamide] | 21.02±4.56 | – | –
CC(=O)CC(=O)Nc1ncc(N2CCOCC2)s1 [Compound 54, N-(5-Morpholinothiazol-2-yl)-3-oxobutanamide] | 66.46±3.73 | – | –
O=C(Nc1ncc(N2CCOCC2)s1)c1cccc2ccccc12 [Compound 30, N-(5-Morpholinothiazol-2-yl)-1-naphthamide] | 78.75±2.50 | 5.76 ± 0.55 | CNS+ (Compounds with permeabilities Pe > 3.08 × 10^−6 cm/s could cross the BBB by passive diffusion (CNS+))
O=C(Nc1ncc(N2CCOCC2)s1)c1ccccc1F [Compound 26, 2-Fluoro-N-(5-morpholinothiazol-2-yl)benzamide] | 65.98±1.74 | – | –
CC(=O)Oc1ccccc1C(=O)Nc1ncc(N2CCCCC2)s1 [Compound 11, 2-Acetyloxy-N-(5-(piperidin-1-yl)thiazol-2-yl)benzamide] | 56.27±4.61 | – | –
O=C(Nc1ncc(N2CCOCC2)s1)c1ccsc1 [Compound 35, N-(5-Morpholinothiazol-2-yl)thiophene-3-carboxamide] | 79.84±1.17 | 9.24 ± 0.47 | CNS+ (Compounds with permeabilities Pe > 3.08 × 10^−6 cm/s could cross the BBB by passive diffusion (CNS+))
O=C(CCC(F)(F)F)Nc1ncc(N2CCOCC2)s1 [Compound 50, 4,4,4-Trifluoro-N-(5-morpholinothiazol-2-yl)butanamide] | 61.35±5.44 | – | –
O=C(Cc1ccccc1)Nc1ncc(N2CCOCC2)s1 [Compound 51, N-(5-Morpholinothiazol-2-yl)-2-phenylacetamide] | 47.82±3.90 | – | –
O=C(Nc1ncc([N+](=O)[O-])s1)c1ccccc1O [Compound 2, tizoxanide, reference compound] | 43.09±2.98 | – | –
O=C(Nc1ncc(N2CCOCC2)s1)C1CC1 [Compound 39, N-(5-Morpholinothiazol-2-yl)cyclopropanecarboxamide] | 63.76±1.31 | – | –
O=C(Nc1ncc(N2CCOCC2)s1)c1ccccc1 [Compound 24, N-(5-Morpholinothiazol-2-yl)benzamide] | 77.51±1.48 | 12.6 ± 1.22 | CNS+ (Compounds with permeabilities Pe > 3.08 × 10^−6 cm/s could cross the BBB by passive diffusion (CNS+))
O=C(Nc1ncc(N2CCOCC2)s1)C1CCCC1 [Compound 41, N-(5-Morpholinothiazol-2-yl)cyclopentanecarboxamide] | 63.37±4.65 | – | –
O=C(Nc1ncc(N2CCOCC2)s1)c1ccccc1C(F)(F)F [Compound 25, N-(5-Morpholinothiazol-2-yl)-2-(trifluoromethyl)benzamide] | 22.05±1.85 | – | –
CC(=O)Nc1ncc(N2CCOCC2)s1 [Compound 45, N-(5-Morpholinothiazol-2-yl)acetamide] | 43.86±4.45 | – | –
CC(=O)Oc1ccccc1C(=O)Nc1ncc(-n2cccc2)s1 [Compound 13, 2-Acetyloxy-N-(5-(1H-pyrrol-1-yl)thiazol-2-yl)benzamide] | 69.85±0.53 | – | –
CC(=O)Oc1ccccc1C(=O)Nc1ncc(S(C)(=O)=O)s1 [Compound 9, 2-Acetyloxy-N-(5-(methylsulfonyl)thiazol-2-yl)benzamide] | 10.67±10.51 | – | –
O=C(Nc1ncc(N2CCOCC2)s1)c1ccccc1[N+](=O)[O-] [Compound 27, N-(5-Morpholinothiazol-2-yl)-2-nitrobenzamide] | 53.24±5.72 | – | –
CCCC(=O)Nc1ncc(N2CCOCC2)s1 [Compound 47, N-(5-Morpholinothiazol-2-yl)butyramide] | 61.71±2.51 | – | –
Cc1ccccc1C(=O)Nc1ncc(N2CCOCC2)s1 [Compound 28, 2-Methyl-N-(5-morpholinothiazol-2-yl)benzamide] | 55.38±1.66 | – | –
CC(=O)Oc1ccccc1C(=O)Nc1ncc(N2CCNCC2)s1 [Compound 14, 2-Acetyloxy-N-(5-(piperazin-1-yl)thiazol-2-yl)benzamide] | 28.21±6.44 | – | –

From paper PMC7161708 (Acta Pharmaceutica Sinica. B, 2019)
